Like-named read-outs stand apart in the source and are kept apart here.
How the values were obtained:
MIA PaCa-2 cells = assay: Non-anchorage-dependent cell growth inhibition (spheroid 3D culture), MIA PaCa-2; type: cell-based; conditions: Homo sapiens, MIA PaCa-2, 144 h, read-out: MIA PaCa-2 IC50
Experimental: (§1) Test Example 3: Evaluation of Non-Anchorage-Dependent Cell Growth Inhibitory Activity on Human KRAS G12V Mutant-Positive Pancreatic Cancer Line PA-TU-8902, Human KRAS G12D Mutant-Positive Pancreatic Cancer Line AsPC-1 or Human KRAS G12C Mutant-Positive Pancreatic Cancer Line MIA PaCa-2
(§2) The non-anchorage-dependent cell growth inhibitory activities of subject compounds were evaluated by spheroid 3D cell culture.
(§3) PA-TU-8902 cells, AsPC-1 cells or MIA PaCa-2 cells (RIKEN BRC, RCB2094) were seeded at 36 µL/well on a low-cell-adhesive round bottom 384-well plate (Prime Surface: from Sumitomo Bakelite) to give 5×10^2 cells per well. The PA-TU-8902 cells were under the same conditions as in Test Example 1-1, and the AsPC-1 cells were under the same conditions as in Test Example 1-2. For the MIA PaCa-2 cells, RPMI-1640 medium containing 10% fetal bovine serum was used in the presence of 5% CO2 at 37° C.
(§4) The next day, the subject compounds (6-9 points having final concentrations in the range of 3 μM to 0.3 nM) and DMSO, which was the solvent for the subject compounds, as a negative control were diluted 100-fold with a fresh medium and were each added at 4 μL per well. After culturing in the presence of 5% CO2 at 37° C. for six days, CellTiter-Glo 2.0 (from Promega) was added at 20 μL per well. After stirring with a plate mixer (from FINEPCR) at normal temperature for an hour, the luminescent signals were measured with ARVO X3 (from PerkinElmer).
(§5) With the signaling value in treatment with DMSO taken as 0% inhibition and with the signaling value in the medium alone without cells taken as 100% inhibition, the 50% inhibition values (IC50) were calculated by Sigmoid-Emax model nonlinear regression analysis.

AsPC-1 cells = assay: Non-anchorage-dependent cell growth inhibition (spheroid 3D culture), AsPC-1; type: cell-based; conditions: Homo sapiens, ASPC1, 144 h, read-out: AsPC-1 IC50
Experimental: as §1, §2, §3, §4, §5

[1] = tested on: phosphorylation of ERK (Thr202/Tyr204); assay: ERK phosphorylation inhibitory activity, cell ELISA, PA-TU-8902; type: cell-based; conditions: Homo sapiens, read-out: IC50 (ERK phosphorylation inhibition)
Experimental: Test Example 2: Evaluation of ERK Phosphorylation Inhibitory Activity on Human KRAS G12V Mutant-Positive Pancreatic Cancer Line PA-TU-8902
The ERK phosphorylation inhibitory activities of subject compounds were evaluated by measuring phosphorylation of the 202th threonine (Thr202) and the 204th tyrosine (Tyr204) of ERK located downstream of the KRAS signal by cell ELISA.
PA-TU-8902 cells were seeded at 36 µL/well on a 384-well plate (from Greiner bio-one) to give 5.0×10^3 cells per well. The cell culture conditions were the same conditions as in Test Example 1-1.
The next day, the subject compounds (9 points having final concentrations in the range of 3 μM to 0.3 nM), trametinib (MEK inhibitor) of a final concentration of 300 nM as a positive control and DMSO, which was the solvent for the subject compounds, as a negative control were diluted 100-fold with a fresh medium and were each added at 4 μL per well, followed by culturing for 24 hours. After culturing, a 30% glyoxal solution (40% glyoxal [from Nacalai Tesque] was diluted with PBS) was quickly added at 30 μL per well, and the plate was allowed to stand for an hour and 30 minutes at room temperature to thus immobilize the cells. Then, the plate was centrifuged (110×g, seven seconds, hereinafter centrifugation was performed under the same conditions unless otherwise specified) to remove the supernatant, and 0.1% Triton X-100-containing PBS was added at 20 μL per well. After allowing the plate to stand for 10 minutes at room temperature, the supernatant was removed by centrifugation, and the same operation was further repeated. Next, 0.5% SDS-containing PBS was added at 20 μL per well. The plate was allowed to stand at room temperature for 30 minutes and was then centrifuged to remove the supernatant. Subsequently, a blocking solution (Intercept Blocking Buffer) was added at 20 μL per well, and the plate was allowed to stand for an hour at room temperature. The supernatant was removed by centrifugation, and an ERK (Thr202/Tyr204) phosphorylation antibody (Phospho-p44/42 MAPK (Erk 1/2) (Thr202/Tyr204) (D13.14.4E) XP Rabbit mAb; from Cell Signaling Technology) diluted 2,500-fold with the blocking solution was added at 15 μL per well as a primary antibody. The plate was allowed to stand at 4° C. overnight.
The next day, the plate was centrifuged to remove the supernatant, and 0.05% Tween-20-containing PBS (from Thermo Scientific; 20×PBS Tween-20 was diluted 20-fold with ion exchange water and used) was added at 50 μL per well. The supernatant was removed by centrifugation to thus wash each well. The washing was performed three times in total. After washing, an anti-rabbit IgG antibody diluted 1,000-fold with the blocking solution was added at 15 μL per well as a secondary antibody, and the plate was allowed to stand for an hour at room temperature. The plate was centrifuged to remove the supernatant, and each well was washed three times with 0.05% Tween-20-containing PBS in the same manner as after the primary antibody reaction. Centrifugation after the third washing was performed at 171×g for 17 seconds. After removing the supernatant, the plate was dried as it was with air at room temperature for three hours or more, and the 800-nm fluorescent signals were measured with Aerius.
With the signaling value at the time of addition of DMSO taken as 0% inhibition and with the signaling value at the time of addition of 300 nM trametinib taken as 100% inhibition, the 50% inhibition values (IC50) were calculated by Sigmoid-Emax model nonlinear regression analysis.

PA-TU-8902 cells = assay: Non-anchorage-dependent cell growth inhibition (spheroid 3D culture), PA-TU-8902; type: cell-based, human; conditions: Homo sapiens, PaTu 8902, 144 h, read-out: PA-TU-8902 IC50
Experimental: as §1, §2, §3, §4, §5

[2] = KRAS G12C mutant-positive, 3D spheroid, six days, CellTiter-Glo 2.0
[3] = KRAS G12D mutant-positive, 3D spheroid, six days, CellTiter-Glo 2.0
[4] = PaTu 8902, PA-TU-8902 cells, 24 hours, 100% = 300 nM trametinib
[5] = KRAS G12V mutant-positive, 3D spheroid, six days, CellTiter-Glo 2.0

SMILES | IC50 (MIA PaCa-2 cells; [2]) [nM] | IC50 (AsPC-1 cells; [3]) [nM] | IC50 [1, 4] [nM] | IC50 (PA-TU-8902 cells; [5]) [nM] | IC50 (MIA PaCa-2 cells) [nM] | IC50 (AsPC-1 cells) [nM] | IC50 ([1]; PaTu 8902, 24 h) [nM] | IC50 (PA-TU-8902 cells) [nM]
CO[C@@H](C)COc1nc(NC2CN(C(=O)O[C@H]3C[C@@H](N(C)C)C3)C2)c2cc(C3CC3)c(-c3c(C)c(F)cc4[nH]ncc34)c(OCc3ccc(-c4cn([C@H](C(=O)N5C[C@H](O)C[C@H]5C(=O)N[C@@H](CO)c5ccc(N6CCOC6=O)cc5)C(C)C)nn4)cc3)c2n1 (atropisomer, axis not shown) [Example 4] | 22 | 38 | 48 | 72 |  |  |  | 
CNCCNC(=O)N1CC(Oc2nc(OC[C@H](C)OC)nc3c(OCc4ccc(-c5cn([C@H](C(=O)N6C[C@H](O)C[C@H]6C(=O)N[C@@H](CO)c6ccc(-c7scnc7C)cc6)C(C)C)nn5)cc4)c(-c4c(C)c(F)cc5[nH]ncc45)c(C4CC4)cc23)C1 (atropisomer, axis not shown) [Example 18] | 26 | 32 | 33 | 69 |  |  |  | 
CO[C@@H](C)COc1nc(N(C)[C@H]2CCN(C(=O)NCCN(C)C)C2)c2cc(C3CC3)c(-c3c(C)c(F)cc4[nH]ncc34)c(OCc3ccc(-c4cn([C@H](C(=O)N5C[C@H](O)C[C@H]5C(=O)N[C@@H](CO)c5ccc(-c6scnc6C)cc5)C(C)C)nn4)cc3)c2n1 (atropisomer, axis not shown) [Example 19] | 27 | 16 | 31 | 58 |  |  |  | 
CO[C@@H](C)COc1nc(N2CC(C#N)C2)c2cc(C3CC3)c(-c3c(C)c(F)cc4[nH]ncc34)c(OCc3ccc(-c4cn([C@H](C(=O)N5C[C@H](O)C[C@H]5C(=O)N[C@@H](CO)c5ccc(-c6scnc6C)cc5)C(C)C)nn4)cc3)c2n1 (atropisomer, axis not shown) [Example 20] | 14 | 68 | 34 | 63 |  |  |  | 
CO[C@@H](C)COc1nc(N[C@H]2C[C@H](OCCN(C)C)C2)c2cc(C3CC3)c(-c3c(C)c(F)cc4[nH]ncc34)c(OCc3ccc(-c4cn([C@H](C(=O)N5C[C@H](O)C[C@H]5C(=O)N[C@@H](CO)c5ccc(-c6scnc6C)cc5)C(C)C)nn4)cc3)c2n1 (atropisomer, axis not shown) [Example 23] | 17 | 9 | 107 | 182 |  |  |  | 
CO[C@@H](C)COc1nc(NC2CN(C(=O)N3CC(CN(C)C)C3)C2)c2cc(C3CC3)c(-c3c(C)c(F)cc4[nH]ncc34)c(OCc3ccc(-c4cn([C@H](C(=O)N5C[C@H](O)C[C@H]5C(=O)N[C@@H](CO)c5ccc(-c6scnc6C)cc5)C(C)C)nn4)cc3)c2n1 (atropisomer, axis not shown) [Example 25] | 16 | 14 | 13 | 41 |  |  |  | 
CO[C@@H](C)COc1cc(OC2CN(C(=O)C3CN(C)C3)C2)c2cc(C3CC3)c(-c3c(C)c(F)cc4[nH]ncc34)c(OCc3ccc(-c4cn([C@H](C(=O)N5C[C@H](O)C[C@H]5C(=O)N[C@@H](CO)c5ccc(-n6cncn6)cc5)C(C)C)nn4)cc3)c2n1 (atropisomer, axis not shown) [Example 42] |  |  |  |  | 9 | 10 | 14 | 32
CO[C@@H](C)COc1nc(NC2CN(C(=O)O[C@H]3C[C@@H](N(C)C)C3)C2)c2cc(C3CC3)c(-c3c(C)c(F)cc4[nH]ncc34)c(OCc3ccc(-c4cn([C@H](C(=O)N5C[C@H](O)C[C@H]5C(=O)N[C@@H](CO)c5ccc(-c6ocnc6C)cc5)C(C)C)nn4)cc3)c2n1 (atropisomer, axis not shown; (M)) [Example 1, (1s,3R)-3-(dimethylamino)cyclobutyl 3-({(7M)-6-cyclopropyl-7-(6-fluoro-5-methyl-1H-indazol-4-yl)-8-{[4-(1-{(2S)-1-[(2S,4R)-4-hydroxy-2-({(1R)-2-hydroxy-1-[4-(4-methyl-1,3-oxazol-5-yl)phenyl]ethyl}carbamoyl)pyrrolidin-1-yl]-3-methyl-1-oxobutan-2-yl}-1H-1,2,3-triazol-4-yl)phenyl]methoxy}-2-[(2S)-2-methoxypropoxy]quinazolin-4-yl}amino)azetidine-1-carboxylate] | 11 | 28 | 19 | 57 |  |  |  | 

The next lines start with results.

IC50 (MIA PaCa-2 cells; [2]) [nM] | IC50 (AsPC-1 cells; [3]) [nM] | IC50 [1, 4] [nM] | SMILES | IC50 (PA-TU-8902 cells; [5]) [nM] | IC50 (MIA PaCa-2 cells) [nM] | IC50 (AsPC-1 cells) [nM] | IC50 ([1]; PaTu 8902, 24 h) [nM] | IC50 (PA-TU-8902 cells) [nM]
9 | 19 | 12 | COC(C)(C)COc1cc(OC2CN(C(=O)N3CC(CN(C)C)C3)C2)c2cc(C3CC3)c(-c3c(C)c(F)cc4[nH]ncc34)c(OCc3ccc(-c4cn([C@H](C(=O)N5C[C@H](O)C[C@H]5C(=O)N[C@@H](CO)c5ccc(-n6cncn6)cc5)C(C)C)nn4)cc3)c2n1 (atropisomer, axis not shown) [Example 9] | 53 |  |  |  | 
10 | 16 | 23 | CO[C@@H](C)COc1nc(OC2CN(C(=O)NCCN(C)C)C2)c2cc(C3CC3)c(-c3c(C)c(F)cc4[nH]ncc34)c(OCc3ccc(-c4cn([C@H](C(=O)N5C[C@H](O)C[C@H]5C(=O)N[C@@H](CO)c5ccc(-c6scnc6C)cc5)C(C)C)nn4)cc3)c2n1 (atropisomer, axis not shown) [Example 17] | 46 |  |  |  | 
11 | 43 | 19 | CO[C@@H](C)COc1nc(N2CCOCC2)c2cc(C3CC3)c(-c3c(C)c(F)cc4[nH]ncc34)c(OCc3ccc(-c4cn([C@H](C(=O)N5C[C@H](O)C[C@H]5C(=O)N[C@@H](CO)c5ccc(-c6scnc6C)cc5)C(C)C)nn4)cc3)c2n1 (atropisomer, axis not shown) [Example 21] | 60 |  |  |  | 
7 | 15 | 15 | CO[C@@H](C)COc1nc(NC2CN(C(=S)N3CC(CN(C)C)C3)C2)c2cc(C3CC3)c(-c3c(C)c(F)cc4[nH]ncc34)c(OCc3ccc(-c4cn([C@H](C(=O)N5C[C@H](O)C[C@H]5C(=O)N[C@@H](CO)c5ccc(-n6cncn6)cc5)C(C)C)nn4)cc3)c2n1 (atropisomer, axis not shown) [Example 26] | 41 |  |  |  | 
